Measurements published in patent US4816447A, “Anti-viral guanine compounds” (priority 1984, dated 1989).

Experiments:
[1] = tested on: Varicella-Zoster virus; experiment: Varicella-Zoster plaque reduction assay on human MRC-5 monolayers; type: cell-based, Varicella-Zoster (Strain KMcC); human MRC-5 cells
Text: ^b Plaque reduction assay on human MRC5 cell monolayers.

[2] = tested on: Epstein-Barr virus (EBV); experiment: Human cord blood lymphocyte transformation assay; type: cell-based, Epstein-Barr (B95-8); human cord blood lymphocytes; details: human gammaherpesvirus 4, B-95-8; B95-8, lymphocyte transformation; read-out: Minimum Effective Concentration
Text: ^c Human cord blood lymphocyte transformation assay.

[3] = tested on: Herpes simplex virus type I (HSV-1), strain Schooler; experiment: Treatment of Herpes simplex virus infection in mice, repeat experiment (Table III); type: in vivo, HSV-1; ICR/Ha mice; details: for Percent Survival: at 15 days
Procedure: Twenty gram ICR/Ha mice were injected intraperitoneally (ip) with 0.5 ml of a 10^-5 dilution of a stock preparation of Herpes simplex virus type I (HSV-1), strain Schooler. This virus challenge infected each animal with approximately 100 LD50. […] The placebo group was composed of 45 animals. All compounds were solubilized in physiological saline, pH 11.5.

[4] = tested on: Herpes simplex virus type 1; experiment: Intraperitoneal Herpes simplex type 1 infection in mice, oral treatment (Table XI); type: in vivo, Herpes simplex type 1; ICR/Ha mice; details: for Percent Survival: at 13 days
Text: ICR/Ha mice were infected as described in Example 36. […] These animals served as toxicity controls.

[5] = tested on: Herpes simplex virus type 2 (Strain Curtis); experiment: Vaginal Herpes simplex virus type 2 infection in mice, oral treatment (Table XII); type: in vivo, Herpes simplex virus type 2; ICR/Ha female mice; details: for Percent Survival: at 19 days
Procedure: Groups of 10 animals were treated twice daily for ten days by oral gavage using acycloquanosine or the compound of formula II at final daily doses of 50, 12.5, 3.1, 0.8 or 0.2 mg/kg starting immediately following infection. The average number of days to infection and the average days of survival were determined for each group and compared to an infected, placebo-treated group.

[6] = tested on: Herpes simplex virus type 1 (Strain S); experiment: Orofacial Herpes simplex virus type 1 infection in mice, oral treatment (Table XIII); type: in vivo, Herpes simplex virus type 1; HRS (hairless) mice; details: for Lesion Incidence (%) / Lesion Incidence (number/Total) / Lesion Severity (scale 0 to 4): 7 days
Procedure: Twenty grams HRS (hairless) mice were infected on the abraded orofacial area with Herpes simplex virus type 1 (Strain S). […] At 7 days after initiation of infection, the extent of lesion development in the orofacial area was measured on a scale of 0 (no lesions) to 4 (massive lesions over the entire snout).

[7] = tested on: Herpes simplex virus type 1 (Strain S); experiment: Orofacial Herpes simplex virus type 1 infection in mice, therapeutic oral treatment (Table XIV); type: in vivo, Herpes simplex virus type 1; HRS (hairless) mice; details: for Lesion Incidence (%) / Lesion Incidence (number/Total) / Lesion Severity (scale 0 to 4): 12.5 mg/kg/day oral
Procedure: Twenty gram HRS (hairless) mice were infected on the abraded orofacial area with Herpes simplex virus type 1 (Strain S).
a. Groups of 10 infected animals were treated twice daily by oral gavage for up to 7 days with the compound of formula II at 12.5 mg/kg/day, starting 3, 8, 12, 24, 48, 72, or 96 hours after infection. […]
At 7 days after initiation of infection, the extent of lesion development in the orofacial area was measured on a scale of 0 (no lesions) to 4 (massive lesions over the entire snout).

[8] = tested on: HSV-1 WT; experiment: 50% plaque reduction of HSV-1 wild type in 3T3 TK- and 3T3 TK-/TK+HSV cells (Table VIII); details: Human alphaherpesvirus 1, in Mus musculus, read-out: Antiviral Concentration, 50% plaque reduction

Nc1nc2c(ncn2COC(CO)CO)c(=O)[nH]1 [Compound of Formula II, 9-(1,3-Dihydroxy-2-propoxymethyl)guanine]
minimal effective concentration ([1]; Human alphaherpesvirus 3, MRC5, Strain KMcC, plaque reduction, read-out: Minimum Effective Concentration): 1 to 2 µg/mL | comparative activity ([1]; compound of formula II vs acycloguanosine): equally active | minimal effective concentration [2]: 1 to 5 µg/mL | Avg. Survival Time ([3]; 0.2 mg/kg/day s.c.): 9.0 days | Percent Survival ([3]; 0.2 mg/kg/day s.c.): 26% | Avg. Survival Time ([3]; 0.8 mg/kg/day s.c.): 9.8 days | Percent Survival ([3]; 0.8 mg/kg/day s.c.): 40% | Avg. Survival Time ([3]; 3.1 mg/kg/day s.c.): 11.8 days | Percent Survival ([3]; 3.1 mg/kg/day s.c.): 46% | Avg. Survival Time ([3]; 12.5 mg/kg/day s.c.): 17.2 days | Percent Survival ([3]; 12.5 mg/kg/day s.c.): 93% | Avg. Survival Time ([3]; 50 mg/kg/day s.c.): 19.5 days | Percent Survival ([3]; 50 mg/kg/day s.c.): 100% | calculated average relative potency to acycloguanosine (95% CI) ([3]; combined results of both mouse experiments): 287.0 | Avg. Survival Time ([4]; 0.2 mg/kg/day oral): 6.8 days | Percent Survival ([4]; 0.2 mg/kg/day oral): 0% | Avg. Survival Time ([4]; 0.8 mg/kg/day oral): 8.5 days | Percent Survival ([4]; 0.8 mg/kg/day oral): 20% | Avg. Survival Time ([4]; 3.1 mg/kg/day oral): 11.7 days | Percent Survival ([4]; 3.1 mg/kg/day oral): 50% | Avg. Survival Time ([4]; 12.5 mg/kg/day oral): 13.9 days | Percent Survival ([4]; 12.5 mg/kg/day oral): 80% | Avg. Survival Time ([4]; 50 mg/kg/day oral): 16.9 days | Percent Survival ([4]; 50 mg/kg/day oral): 100% | extension of survival time vs placebo ([4]; 50, 12.5, 3.1 and 0.8 mg/kg daily): statistically significant extension of survival time | survival vs placebo ([4]; 50 and 12.5 mg/kg groups): statistically significantly longer | overt toxicity, final weight of test animals ([4]; oral, twice daily for 7 days): no evidence of overt toxicity | relative potency to acycloguanosine ([4]; statistically significant): 50.3 | Avg. Survival Time ([5]; 0.2 mg/kg/day oral): 12.1 days | Percent Survival ([5]; 0.2 mg/kg/day oral): 30% | Avg. Survival Time ([5]; 0.8 mg/kg/day oral): 15.1 days | Percent Survival ([5]; 0.8 mg/kg/day oral): 40% | Avg. Survival Time ([5]; 3.1 mg/kg/day oral): 19.1 days | Percent Survival ([5]; 3.1 mg/kg/day oral): 75% | Avg. Survival Time ([5]; 12.5 mg/kg/day oral): 24.7 days | Percent Survival ([5]; 12.5 mg/kg/day oral): 100% | number of days to infection vs placebo ([5]; 50 mg/kg and 12.5 mg/kg): statistically significant increases in the number of days to infection | signs of herpetic infection ([5]; 50 mg/kg, duration of the test): remained free of signs of herpetic infection | Avg. Survival Time ([5]; 50 mg/kg/day oral): 24.7 days | Percent Survival ([5]; 50 mg/kg/day oral): 100% | survival time vs placebo ([5]; 50, 12.5, 3.1 and 0.8 mg/kg): statistically significant increase in survival time | survival rate vs placebo ([5]; 50, 12.5 and 3.1 mg/kg): statistically significantly increased | relative potency to acycloguanosine as measured by survival ([5]; statistically significant): 28.1 | relative potency to acycloguanosine as measured by time to infection ([5]; statistically significant): 4.14 | Lesion Incidence (%) ([6]; 0.2 mg/kg/day oral): 100% | Lesion Incidence (number/Total) ([6]; 0.2 mg/kg/day oral): 7/7 | Lesion Severity (scale 0 to 4) ([6]; 0.2 mg/kg/day oral): 2.93 | Lesion Incidence (%) ([6]; 0.8 mg/kg/day oral): 100% | Lesion Incidence (number/Total) ([6]; 0.8 mg/kg/day oral): 7/7 | Lesion Severity (scale 0 to 4) ([6]; 0.8 mg/kg/day oral): 2.93 | Lesion Incidence (%) ([6]; 3.1 mg/kg/day oral): 67% | Lesion Incidence (number/Total) ([6]; 3.1 mg/kg/day oral): 6/9 | Lesion Severity (scale 0 to 4) ([6]; 3.1 mg/kg/day oral): 1.00 | Lesion Incidence (%) ([6]; 12.5 mg/kg/day oral): 20% | Lesion Incidence (number/Total) ([6]; 12.5 mg/kg/day oral): 2/10 | Lesion Severity (scale 0 to 4) ([6]; 12.5 mg/kg/day oral): 0.45 | Lesion Incidence (%) ([6]; 50 mg/kg/day oral): 10% | Lesion Incidence (number/Total) ([6]; 50 mg/kg/day oral): 1/10 | Lesion Severity (scale 0 to 4) ([6]; 50 mg/kg/day oral): 0.05 | incidence of lesions vs placebo ([6]; 50 and 12.5 mg/kg): statistically significant protection | extent of lesion development vs placebo ([6]; all concentrations used): statistically significant protection | relative potency to acycloguanosine ([6]; statistically significant): 6.9 | Lesion Incidence (%) ([7]; start 3 hours post infection): 60% | Lesion Incidence (number/Total) ([7]; start 3 hours post infection): 6/10 | Lesion Severity (scale 0 to 4) ([7]; start 3 hours post infection): 1.30 | Lesion Incidence (%) ([7]; start 8 hours post infection): 30% | Lesion Incidence (number/Total) ([7]; start 8 hours post infection): 3/10 | Lesion Severity (scale 0 to 4) ([7]; start 8 hours post infection): 0.55 | Lesion Incidence (%) ([7]; start 12 hours post infection): 50% | Lesion Incidence (number/Total) ([7]; start 12 hours post infection): 5/10 | Lesion Severity (scale 0 to 4) ([7]; start 12 hours post infection): 0.55 | Lesion Incidence (%) ([7]; start 24 hours post infection): 40% | Lesion Incidence (number/Total) ([7]; start 24 hours post infection): 4/10 | Lesion Severity (scale 0 to 4) ([7]; start 24 hours post infection): 0.40 | Lesion Incidence (%) ([7]; start 48 hours post infection): 90% | Lesion Incidence (number/Total) ([7]; start 48 hours post infection): 9/10 | Lesion Severity (scale 0 to 4) ([7]; start 48 hours post infection): 1.50 | Lesion Incidence (%) ([7]; start 72 hours post infection): 80% | Lesion Incidence (number/Total) ([7]; start 72 hours post infection): 8/10 | Lesion Severity (scale 0 to 4) ([7]; start 72 hours post infection): 2.55 | Lesion Incidence (%) ([7]; start 96 hours post infection): 100% | Lesion Incidence (number/Total) ([7]; start 96 hours post infection): 10/10 | Lesion Severity (scale 0 to 4) ([7]; start 96 hours post infection): 3.85 | incidence of lesion development vs placebo ([7]; start 8, 12 and 24 hours after infection): statistically significant lower incidence of lesion development | lesion scores vs placebo ([7]; start as late as 72 hours after infection): statistically significant lower lesion scores | EC50 [8]: 0.06 µg/mL
